Results as given in ChEMBL document CHEMBL1201862, “PubChem BioAssay data set” (2004).
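Five compound concentrations were applied to cells in 96-well plates for 48 hours; endpoints were derived by simple linear interpolation of the resulting dose-response curve. Abbreviation: GI50, concentration required for 50% inhibition of growth.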 The source made the active and inactive calls. No stated cut-off is given here; in the data, active = GI50 up to about 1.1 µM and inactive = higher.

Assays:
Experiment in all cases: NCI-60 cell line screen, 48 h
[1] = tested on: SNB-19
[2] = tested on: HOP-62
[3] = tested on: SF-539
[4] = tested on: HT-29
[5] = tested on: OVCAR-4
[6] = tested on: EKVX
[7] = tested on: SK-OV-3
[8] = tested on: HOP-92
[9] = tested on: SR
[10] = tested on: M19-MEL
[11] = tested on: ACHN
[12] = tested on: SW-620
[13] = tested on: IGROV-1
[14] = tested on: DU-145
[15] = tested on: U-251
[16] = tested on: MDA-N
[17] = tested on: SK-MEL-5
[18] = tested on: LXFL 529
[19] = tested on: NCI-H23
[20] = tested on: UACC-62
[21] = tested on: HCT-15
[22] = tested on: DMS-273
[23] = tested on: M14
[24] = tested on: PC-3
[25] = tested on: OVCAR-3
[26] = tested on: T47D
[27] = tested on: SF-295
[28] = tested on: 786-0
[29] = tested on: RPMI-8226
[30] = tested on: CAKI-1
[31] = tested on: CCRF-CEM
[32] = tested on: K562
[33] = tested on: BT-549
[34] = tested on: HCC 2998
[35] = tested on: RXF 631
[36] = tested on: DLD-1
[37] = tested on: MDA-MB-435
[38] = tested on: HL-60
[39] = tested on: HOP-18
[40] = tested on: NCI-H460
[41] = tested on: RXF 393
[42] = tested on: SNB-75
[43] = tested on: HCT-116
[44] = tested on: NCI-H522
[45] = tested on: MCF7
[46] = tested on: UACC-257
[47] = tested on: COLO 205
[48] = tested on: LOX IMVI
[49] = tested on: MDA-MB-231
[50] = tested on: KM12
[51] = tested on: OVCAR-8
[52] = tested on: A498
[53] = tested on: SN12C
[54] = tested on: OVCAR-5
[55] = tested on: DMS-114
[56] = tested on: Malme-3M
[57] = tested on: UO-31
[58] = tested on: A549
[59] = tested on: NCI-H226
[60] = tested on: SNB-78
[61] = tested on: SK-MEL-2
[62] = tested on: TK-10
[63] = tested on: SF-268
[64] = tested on: SK-MEL-28
[65] = tested on: Hs-578T
[66] = tested on: MOLT-4
[67] = tested on: KM-20L2

With `CN(C)CCNC(=O)c1cccc2nc3c(ccc4ccccc43)nc12` the GI50 [1] was 5.06 µM (inactive), the GI50 [2] was 2.25 µM (inactive) and the GI50 [3] was 1.8 µM (inactive). The GI50 [4] was 1.56 µM (inactive), the GI50 [5] was 2.21 µM (inactive) and the GI50 [6] was 5.74 µM (inactive). The GI50 [7] was 5.42 µM (inactive), the GI50 [8] was 3.61 µM (inactive) and the GI50 [9] was 0.362 µM (active). The GI50 [10] was 1.56 µM (inactive), the GI50 [11] was 1.41 µM (inactive) and the GI50 [12] was 1.1 µM (active). The GI50 [13] was 2.9 µM (inactive), the GI50 [14] was 4.85 µM (inactive) and the GI50 [15] was 1.47 µM (inactive). The GI50 [16] was 1.72 µM (inactive), the GI50 [17] was 1.76 µM (inactive) and the GI50 [18] was 2.51 µM (inactive). For the same compound, the GI50 [19] was 3.9 µM (inactive), the GI50 [20] was 2.45 µM (inactive) and the GI50 [21] was 1.61 µM. The GI50 [22] was 1.54 µM (inactive), the GI50 [23] was 2.49 µM (inactive) and the GI50 [24] was 2.79 µM (inactive). The GI50 [25] was 7.89 µM (inactive), the GI50 [26] was 6.11 µM (inactive) and the GI50 [27] was 2.56 µM (inactive). The GI50 [28] was 2.91 µM (inactive), the GI50 [29] was 1.91 µM (inactive) and the GI50 [30] was 3.37 µM (inactive). For the same compound, the GI50 [31] was 1.16 µM (inactive), the GI50 [32] was 1.52 µM (inactive) and the GI50 [33] was 10.6 µM (inactive). For the same compound, the GI50 [34] was 1.98 µM (inactive), the GI50 [35] was 1.02 µM (active) and the GI50 [36] was 1.79 µM (inactive). The GI50 [37] was 3.33 µM (inactive), the GI50 [38] was 1.17 µM (inactive) and the GI50 [39] was 6.53 µM (inactive). The GI50 [40] was 0.479 µM (active), the GI50 [41] was 3.2 µM (inactive) and the GI50 [42] was 3.9 µM (inactive). The GI50 [43] was 1.75 µM (inactive), the GI50 [44] was 4.22 µM (inactive) and the GI50 [45] was 0.476 µM (active). The GI50 [46] was 1.74 µM (inactive), the GI50 [47] was 1.6 µM (inactive) and the GI50 [48] was 1.08 µM (active). The GI50 [49] was 1.81 µM (inactive), the GI50 [50] was 2.09 µM (inactive) and the GI50 [51] was 1.73 µM (inactive). For the same compound, the GI50 [52] was 2.95 µM (inactive), the GI50 [53] was 2.48 µM (inactive) and the GI50 [54] was 4.55 µM (inactive). The GI50 [55] was 2.69 µM (inactive), the GI50 [56] was 1.56 µM (inactive) and the GI50 [57] was 3.38 µM (inactive). For the same compound, the GI50 [58] was 1.21 µM (inactive), the GI50 [59] was 2.9 µM (inactive) and the GI50 [60] was 5.16 µM (inactive). The GI50 [61] was 1.91 µM (inactive), the GI50 [62] was 7.93 µM (inactive) and the GI50 [63] was 0.675 µM (active). The GI50 [64] was 2.05 µM (inactive), the GI50 [65] was 3.62 µM (inactive) and the GI50 [66] was 0.327 µM (active). For the same compound, the GI50 [67] was 1.51 µM (inactive).
`C/C(=N\NC(N)=O)C(CN1CCCCC1)C(c1ccccc1)c1c(O)c2ccccc2oc1=O` (stereo not drawn) was tested, and the GI50 [1] was > 100 µM (inactive), the GI50 [2] was > 100 µM (inactive) and the GI50 [3] was > 100 µM (inactive). The GI50 [4] was > 100 µM (inactive), the GI50 [5] was > 100 µM (inactive) and the GI50 [6] was > 100 µM (inactive). For the same compound, the GI50 [7] was > 100 µM (inactive), the GI50 [9] was > 100 µM (inactive) and the GI50 [10] was > 100 µM (inactive). The GI50 [11] was > 100 µM (inactive), the GI50 [12] was > 100 µM (inactive) and the GI50 [13] was > 100 µM (inactive). For the same compound, the GI50 [15] was > 100 µM (inactive), the GI50 [17] was > 100 µM (inactive) and the GI50 [18] was > 100 µM (inactive). For the same compound, the GI50 [20] was > 100 µM (inactive), the GI50 [21] was > 100 µM and the GI50 [22] was > 100 µM (inactive). For the same compound, the GI50 [23] was > 100 µM (inactive), the GI50 [25] was > 100 µM (inactive) and the GI50 [27] was > 100 µM (inactive). The GI50 [28] was 0.6 µM (active), the GI50 [29] was > 100 µM (inactive) and the GI50 [30] was > 100 µM (inactive). The GI50 [31] was > 100 µM (inactive), the GI50 [32] was > 100 µM (inactive) and the GI50 [34] was > 100 µM (inactive). For the same compound, the GI50 [35] was > 100 µM (inactive), the GI50 [36] was > 100 µM (inactive) and the GI50 [38] was > 100 µM (inactive). The GI50 [39] was > 100 µM (inactive), the GI50 [40] was > 100 µM (inactive) and the GI50 [41] was > 100 µM (inactive). For the same compound, the GI50 [42] was > 100 µM (inactive), the GI50 [43] was > 100 µM (inactive) and the GI50 [44] was > 100 µM (inactive). For the same compound, the GI50 [46] was > 100 µM (inactive), the GI50 [47] was > 100 µM (inactive) and the GI50 [48] was > 100 µM (inactive). For the same compound, the GI50 [50] was > 100 µM (inactive), the GI50 [51] was > 100 µM (inactive) and the GI50 [52] was > 100 µM (inactive). For the same compound, the GI50 [53] was > 100 µM (inactive), the GI50 [54] was > 100 µM (inactive) and the GI50 [55] was > 100 µM (inactive). The GI50 [56] was > 100 µM (inactive), the GI50 [57] was > 100 µM (inactive) and the GI50 [58] was > 100 µM (inactive). For the same compound, the GI50 [59] was > 100 µM (inactive), the GI50 [60] was > 100 µM (inactive) and the GI50 [61] was > 100 µM (inactive). The GI50 [62] was > 100 µM (inactive), the GI50 [63] was > 100 µM (inactive) and the GI50 [64] was > 100 µM (inactive). For the same compound, the GI50 [66] was > 100 µM (inactive) and the GI50 [67] was > 100 µM (inactive).
